Measured values: patent US9770421B2, “Uses for idebenone and related benzoquinones in metabolic disorders and other PPAR α/γ related diseases and conditions” (INDANIO BIOSCIENCE INC., priority 2013, dated 2017)
pEC50: −log10 of the molar value. “Also recorded” adds a separate entry of the source.

Tests used:
PPARδ/β = biological target: T1, PPARδ/β (Homo sapiens, UniProt Q03181); assay: PPARδ/β ligand trap transgenic zebrafish line; conditions: in vivo
T1 construct: expressed in transfected cells; host or cells: transgenic zebrafish embryos (ligand-trap line)
T1 sequence (Q03181 211-439 limits assumed): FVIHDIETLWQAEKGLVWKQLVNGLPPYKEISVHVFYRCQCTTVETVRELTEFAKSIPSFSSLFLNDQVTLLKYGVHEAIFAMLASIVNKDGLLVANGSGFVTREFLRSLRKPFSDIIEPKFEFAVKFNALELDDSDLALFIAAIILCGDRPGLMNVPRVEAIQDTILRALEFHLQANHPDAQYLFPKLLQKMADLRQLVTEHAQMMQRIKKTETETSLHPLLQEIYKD
Description: To test for specificity, idebenone and CoQ10 were also tested on PPARα, and PPARδ/β receptors in vivo and in vitro. […] The same relative responses were obtained with HEK 293 cells grown in culture and transfected with PPAR expression vectors and luciferase reporters (FIG. 5).

PPARα LBD = biological target: T2, PPARα LBD (Homo sapiens, UniProt Q07869); assay: In vitro co-purification with His-tagged PPARα LBD, MS; assay type: binding; conditions: incubated with 10 μM idebenone
T2 construct: His-tagged PPARα, δ and γ LBDs were expressed in bacteria, Ni-NTA purified; His; made in house; host or cells: bacteria (E. coli)
T2 sequence (Q07869 239-466 limits assumed): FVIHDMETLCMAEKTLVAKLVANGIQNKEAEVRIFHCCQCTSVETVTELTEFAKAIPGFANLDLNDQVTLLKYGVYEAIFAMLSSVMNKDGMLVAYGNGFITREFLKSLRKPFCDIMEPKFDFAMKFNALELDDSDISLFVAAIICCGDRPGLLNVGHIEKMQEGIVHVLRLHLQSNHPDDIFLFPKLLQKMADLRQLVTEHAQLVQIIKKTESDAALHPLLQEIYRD
Description: To see if idebenone can bind to directly to other PPAR LBDs, His-tagged PPARα, δ and γ LBDs were expressed in bacteria, Ni-NTA purified and incubated with 10 μM idebenone. After several washes in a 10 kDa cut off Amicon centrifuge filter (Millipore), lipids were extracted and analyzed by MS.

3T3-L1 cells = assay: Murine 3T3-L1 adipocyte differentiation assay (Oil Red O); assay type: cell-based; conditions: with dexamethasone, isobutylmethylxanthine and insulin; Oil Red O staining
Description: The cell line was originally obtained from ATCC and 3T3-L1 cells were maintained in the fibroblasts stage in DMEM (Gibco: 11995-065), 10% FBS (Gibco: 26140-079) and Pen-Strep solution (Gibco: 15140-122). Cells were grown in 75 cm^2 flasks and sub-cultured just prior to confluence. Medium was removed and washed twice with PBS. For cell differentiation 2 day post-confluent monolayers were incubated for 2 days in DMEM containing: 10% fetal bovine serum (FBS), 100 μg/ml IBMX (from a 500× stock in 0.15 M KOH, prepared fresh), 390 ng/ml dexamethasone (from a 1000× stock in EtOH) and 5 μg/ml insulin (from a 1000× stock in 0.1 M HCl). After 2 days media was replaced with DMEM+ 10% FBS and 5 μg insulin only and cells were maintained for another 2 days. Media was then replaced by DMEM+ 10% FBS for 5-6 days until differentiation was complete. After differentiation media was removed and cells were washed twice with PBS and then fixed in 4% PFA. Lipids were stained with Oil O red.

[1] = tested on: diet-induced obese C57BL/6J male mice; assay: Diet-induced-obese (DIO) mouse study; assay type: in vivo
Description: Mouse-based biomedical research was performed by the Jackson Laboratory to test the efficacy of idebenone in a diet-induced-obese (DIO) mouse model and approved by the Institutional Animal Care and Use Committee (IACUC). To test the efficacy of idebenone in a db/db mouse model experiments were performed at the Univerity of Torotno and were approved by the Animal Care Committee at the University of Toronto.
DIO study: Forty four (44) diet-induced obese C57BL/6J male mice (started on high fat diet at the age of 6 weeks) were used at 16 wks of age. The mice were ear notched for identification using the standard mouse ID format. Mice were housed at a density of 3-4 per cage in polycarbonate cages, which were both individually and positively ventilated. Bed-o'Cobs® corn cob bedding was provided and was changed every two weeks or as needed.
The animal room was lighted entirely with artificial fluorescent lighting on controlled 12 hr light/dark cycle (6 a.m. to 6 p.m. light). The normal temperature and relative humidity ranges in the animal rooms were maintained at 22±4° C. and 50±15%, respectively. The animal room was set for 15 air exchanges per hour. Filtered tap water acidified to a pH of 2.5 to 3.1 was provided ad libitum. High fat diet (60 kcal %) was provided ad libitum. Following a 2 week acclimation, 32 mice were chosen based on desired body weight range. Remaining mice were euthanized. Mice were randomized by body weight into four treatment groups (n=8) by body weight and non-fasting blood glucose taken three days prior to the start of dosing. Body weights, non-fasting blood glucose, and insulin were measured before dosing. Dosing occurred for 5 days. Fasting blood glucose and insulin were measured at the end of dosing (mice were fasted overnight on day 5, and insulin and blood glucose was measured on day 6). Mice were euthanized by CO2 euthanasia. An aliquot of whole blood was processed to measure insulin.

hPPARγ = biological target: T3, hPPARγ (Homo sapiens, UniProt P37231); assay: HEK293 cell culture luciferase reporter assay, hPPARγ
T3 sequence (P37231 188-477 isoform P37231-2): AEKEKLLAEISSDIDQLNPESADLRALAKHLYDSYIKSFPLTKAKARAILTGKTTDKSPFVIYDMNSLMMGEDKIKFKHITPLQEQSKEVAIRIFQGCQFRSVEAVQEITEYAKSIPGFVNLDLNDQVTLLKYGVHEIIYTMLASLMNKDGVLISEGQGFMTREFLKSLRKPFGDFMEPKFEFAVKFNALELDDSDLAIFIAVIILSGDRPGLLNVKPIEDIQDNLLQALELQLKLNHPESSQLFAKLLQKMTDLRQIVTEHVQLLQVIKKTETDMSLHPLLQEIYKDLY

[2] = gavage twice daily for 5 days, 50 mpk idebenone, 30 mpk rosiglitazone

Response of PPARδ/β transgenic line (PPARδ/β): no response
Binding to PPARα LBD (co-purification, MS) (PPARα LBD): strong binding
pEC50 (hPPARγ): 5.60
Structure (SMILES): COC1=C(OC)C(=O)C(CCCCCCCCCCO)=C(C)C1=O [Idebenone, 2-(10-hydroxydecyl)-5,6-dimethoxy-3-methyl-2,5-cyclohexadiene-1,4-dione]
Lipid accumulation / adipocyte differentiation (3T3-L1 cells): does not stimulate adipocyte differentiation and activity; also recorded: no accumulation of lipid
Insulin resistance (HOMA-IR) ([1]; 50 mpk idebenone twice daily for 5 days): clear improvement
Blood glucose levels [1, 2]: trend towards lowered blood glucose levels; also recorded: lowers
Fasting insulin levels [1, 2]: reduction in fasting insulin levels; also recorded: lowers
Maximum activation level versus full agonist, PPARγ (hPPARγ; HEK293, full agonist rosiglitazone): significantly lower than those obtained using the full agonists
